Patent US20230416330A1, “Optimized GIP Peptide Analogues” (Antag Therapeutics ApS, priority 2019, published 2023)
Positions of bridges follow the written chain, without caps; N, C: chain ends. Non-standard residues stand in square brackets, D forms with d. Residues, ends and D or L forms follow the SMILES beside them. Chains are numbered I, II in the order given. No end group written: not given here. *: point of attachment. C16 diacid = O=C(O)CCCCCCCCCCCCCCC(=O)*; Aib = CC(C)(N)C(=O)O

What was measured:
[1] = Solubility by visual inspection of peptide solutions; assay type: physicochemical
Experimental: (§1) Peptides were either dissolved in sodium phosphate buffer (50 mM, pH 7.4, filtered) or dissolved in ultrapure (MilliQ) water (adjusted to pH 7.4 with NaOH, filtered) (see Table 3). All peptide samples were prepared to a concentration of 1, 5, 7.5 or 15 mg/ml. All samples, with the exception of reference peptides GIP(3-30), AT158, and AT482 dissolved readily and produced clear and colorless solutions with gentle mixing. Peptide samples were subsequently filtered through 0.22 μm nylon filters (Q-Max® RR syringe filter, 13 mm, Frisenette, DK) to produce particle-free solutions. All samples were added to a 96-well plate reader for the ThT assay at t=0.
Clear visual appearance may be taken as an indicator of the immediate solubility of the peptide. […] Thus, A13Aib and/or N24E substitutions appear to increase solubility.

[2] = Physical stability: fibril formation in Thioflavin T (ThT) assay with agitation; assay type: physicochemical; details: for Avr lag time (h) / Avr lag time: 25° C., agitation
Experimental: Continuous measurement of the fluorescence emission at 486 nm can be used as a measure of fibrillation behavior of peptides and proteins. The time until onset of fibrillation or fibrillation lag time is estimated here by defining the lag time (Tlag) as the point in time where the signal relative to the pre-transition baseline has reached 10% of the post-transition baseline.
50 mM sodium phosphate buffer for dissolving some samples was prepared in ultrapure water (Milli-Q® Reference A+ System, Merck) with a resistivity of 18.2 MΩ·cm. The buffer was adjusted to pH 7.4 and filtered.
The ultrapure water (MilliQ) for dissolving some samples was adjusted to pH 7.4 with NaOH and filtered prior to sample preparation.
as §1
For each sample, […] ThT (1 mM) was added to 1.2 mL peptide solution. From this sample mixture, an amount of 200 uL/well was pipetted into four or five wells (n=4 or 5). Blank samples (buffer+ThT) were also included. One 3 mm silica bead was added to each well containing samples and the plate was subjected to orbital rotation at 300 rpm to agitate and stress the samples. The temperature was kept at 25° C. throughout the measurement.

Compound: CC[C@H](C)[C@H](NC(=O)[C@H](CO)NC(=O)[C@H](Cc1ccc(O)cc1)NC(=O)[C@H](CC(=O)O)NC(=O)[C@H](CO)NC(=O)[C@@H](NC(=O)[C@H](Cc1ccccc1)NC(=O)[C@@H](NC(=O)CNC(=O)[C@@H](N)CCC(=O)O)[C@@H](C)O)[C@@H](C)CC)C(=O)N[C@@H](C)C(=O)N[C@@H](CCSC)C(=O)N[C@@H](CC(=O)O)C(=O)N[C@@H](CCCCN)C(=O)N[C@@H](CCCCNC(=O)CCCCCCCCCCCCCCC(=O)O)C(=O)N[C@@H](Cc1c[nH]cn1)C(=O)N[C@@H](CCC(N)=O)C(=O)N[C@@H](CCC(N)=O)C(=O)N[C@@H](CC(=O)O)C(=O)N[C@@H](Cc1ccccc1)C(=O)N[C@H](C(=O)N[C@@H](CCC(=O)O)C(=O)N[C@@H](Cc1c[nH]c2ccccc12)C(=O)N[C@@H](CC(C)C)C(=O)N[C@@H](CC(C)C)C(=O)N[C@@H](C)C(=O)N[C@@H](CCC(N)=O)C(=O)N[C@@H](CCCCN)C(=O)N1CCC[C@H]1C(=O)N[C@@H](CO)C(=O)N[C@@H](CO)C(=O)NCC(=O)N[C@@H](C)C(=O)N1CCC[C@H]1C(=O)N1CCC[C@H]1C(=O)N1CCC[C@H]1C(=O)N[C@@H](CO)C(=O)O)C(C)C [AT742] (H-EGTFISDYSIAMDKK(C16 diacid)HQQDFVEWLLAQKPSSGAPPPS-OH; N-terminus assumed)
- Visual appearance ([1]; 1 mg/ml, TFA, Phosphate (7.4)): Clear
- Avr lag time (h) ([2]; 1 mg/ml, TFA, Phosphate (7.4)): fnd (Fnd = fibrils not detected within experiment time (96 hours) with agitation.)

Compound: I: EGTFISEYSI[Aib]LEKIKQQEFVEWLLAQKPSSGAPPPS-OH / II: {C16 diacid}-GGGGS (amide I:16-II:C) [AT722]
- Visual appearance ([1]; 1 mg/ml, TFA, Phosphate (7.4)): Clear
- Visual appearance ([1]; 7.5 mg/ml, Na, MilliQ (8)): Clear
- Visual appearance ([1]; 15 mg/ml, Na, MilliQ (8)): Clear
- Avr lag time (h) ([2]; 1 mg/ml, TFA, Phosphate (7.4)): fnd (Fnd = fibrils not detected within experiment time (96 hours) with agitation.)
- Avr lag time (h) ([2]; 7.5 mg/ml, Na, MilliQ (8)): fnd (Fnd = fibrils not detected within experiment time (96 hours) with agitation.)
- Avr lag time (h) ([2]; 15 mg/ml, Na, MilliQ (8)): fnd (Fnd = fibrils not detected within experiment time (96 hours) with agitation.)

Compound: CC[C@H](C)[C@H](NC(=O)[C@H](CO)NC(=O)[C@H](Cc1ccc(O)cc1)NC(=O)[C@H](CC(=O)O)NC(=O)[C@H](CO)NC(=O)[C@@H](NC(=O)[C@H](Cc1ccccc1)NC(=O)[C@@H](NC(=O)CNC(=O)[C@@H](N)CCC(=O)O)[C@@H](C)O)[C@@H](C)CC)C(=O)N[C@@H](C)C(=O)N[C@@H](CCSC)C(=O)N[C@@H](CC(=O)O)C(=O)N[C@@H](CCCCN)C(=O)N[C@H](C(=O)N[C@@H](CCCCNC(=O)CCCCCCCCCCCCCCC(=O)O)C(=O)N[C@@H](CCC(N)=O)C(=O)N[C@@H](CCC(N)=O)C(=O)N[C@@H](CC(=O)O)C(=O)N[C@@H](Cc1ccccc1)C(=O)N[C@H](C(=O)N[C@@H](CC(N)=O)C(=O)N[C@@H](Cc1c[nH]c2ccccc12)C(=O)N[C@@H](CC(C)C)C(=O)N[C@@H](CC(C)C)C(=O)N[C@@H](C)C(=O)N[C@@H](CCC(N)=O)C(=O)N[C@@H](CCCCN)C(=O)N1CCC[C@H]1C(=O)N[C@@H](CO)C(=O)N[C@@H](CO)C(=O)NCC(=O)N[C@@H](C)C(=O)N1CCC[C@H]1C(=O)N1CCC[C@H]1C(=O)N1CCC[C@H]1C(=O)N[C@@H](CO)C(=O)O)C(C)C)[C@@H](C)CC [AT364, GIP(3-30) [H18K] C16diacid+Cex(31-39), reference compound] (H-EGTFISDYSIAMDKIK(C16 diacid)QQDFVNWLLAQKPSSGAPPPS-OH; N-terminus assumed)
- Visual appearance ([1]; 1 mg/ml, CI, Phosphate (7.4)): Clear
- Visual appearance ([1]; 1 mg/ml, Na, MilliQ): Clear
- Visual appearance ([1]; 1 mg/ml, TFA, Phosphate (7.4)): Clear
- Visual appearance ([1]; 5 mg/ml, Na, MilliQ): Clear
- Visual appearance ([1]; 5 mg/ml, TFA, MilliQ (8)): Clear
- Visual appearance ([1]; 5 mg/ml, TFA, Phosphate): Clear
- Visual appearance ([1]; 7.5 mg/ml, Na, MilliQ (8)): Clear
- Visual appearance ([1]; 15 mg/ml, Na, MilliQ (8)): Clear
- Avr lag time ([2]; 1 mg/ml, TFA, Phosphate (7.4)): <18 h
- Avr lag time ([2]; 5 mg/ml, Na, MilliQ): 20 to 50 h
- Avr lag time ([2]; 5 mg/ml, TFA, MilliQ (8)): <18 h
- Avr lag time ([2]; 5 mg/ml, TFA, Phosphate): <18 h
- Fibril formation (FIG. 1) ([2]; in phosphate buffer, about 94 h, orbital rotation): forms fibrils
